From patent US20250073184A1, “CANNABIGEROQUINONE COMPOUNDS, COMPOSITIONS INCLUDING SUCH COMPOUNDS, AND USES OF SUCH COMPOUNDS AND COMPOSITIONS” (Juva Life, Inc., priority 2021, published 2025) come the findings set out here.

The target of data set [1] is T1, cannabinoid receptor 2 (CNR2) (Homo sapiens, UniProt P34972).
T1 construct: host or cells: CHO-K1
In words: CB2 receptor agonist assay (cAMP Hunter eXpress, CNR2 CHO-K1 cells). In kind it is cell-based. The protocol:
(§1) The assays were performed in cAMP Hunter eXpress cells engineered to overexpress naturally Gi/Go-coupled wildtype cannabinoid receptor 1 (CNR1) or cannabinoid receptor 2 (CNR2) in CHO-K1 cell type. In these cells, CB1 and/or […] agonists inhibit production of intracellular cAMP in response to stimulation with Forskolin. cAMP levels are determined using luminogenic detection reagents provided with the Hunter eXpress cAMP detection kit.
(§2) • Assay ready CNR1 CHO-K1 cells were obtained from Eurofins/Discover X, cat #95-0071E2 • Assay ready CNR2 CHO-K1 cells were obtained from Eurofins/Discover X, cat #95-0183E2 • Hunter eXpress cAMP detection kit was also from Discover X. The kit includes all cAMP detection reagents, Forskolin, complete cell plating medium and cell assay buffer.
The Assay-Ready CNR1 CHO-K1 or CNR2 CHO-K1 cells were thawed and re-suspended in pre-warmed Assay Complete plating medium and inoculated into 96 well plate at a density of 30,000 cells in 100 μL. The plates with cells were incubated for 24 h at 37° C. in 5% CO2. […] The cells were stimulated with the Forskolin/compound buffer for 30 min. After stimulation, 15 μL of cAMP antibody reagent and 60 μL of cAMP working detection solution were added to the cells and, the cells were incubated for 1 h at room temperature. After 1 h incubation, 60 μL of cAMP Solution A was added to the wells and the plate was incubated for 3 h at room temperature. The plate was read on Biotek Synergy Neo2 reader in luminescent mode. CB1 and CB2 agonists should reduce cAMP production in response to Forskilin. Relative luminescence units (RLUs) were plotted against compound concentration to determine apparent EC50 values of the agonist compounds.

The target of data set [2] is T2, cannabinoid receptor 1 (CNR1) (Homo sapiens, UniProt P21554).
T2 construct: host or cells: CHO-K1
Briefly: CB1 receptor agonist assay (cAMP Hunter eXpress, CNR1 CHO-K1 cells). The format is cell-based. The conditions noted are these: agonist mode, Forskolin-stimulated cAMP. The protocol: as §1, §2
The Assay-Ready CNR1 CHO-K1 or CNR2 CHO-K1 cells were thawed and re-suspended in pre-warmed Assay Complete plating medium and inoculated into 96 well plate at a density of 30,000 cells in 100 μL. The plates with cells were incubated for 24 h at 37° C. in 5% CO2. […] The cells were stimulated with the Forskolin/compound buffer for 30 min. […] The plate was read on Biotek Synergy Neo2 reader in luminescent mode. […] Relative luminescence units (RLUs) were plotted against compound concentration to determine apparent EC50 values of the agonist compounds.

Data set [3] deals with HL-60 acute promyelocytic leukemia cell line. In words: HL-60 cell line toxicity (Cell titer Glo viability). The conditions noted are these: HL-60, 72 h. The protocol: The half maximal inhibition concentration (IC50) for each compound was determined by harvesting cells during the logarithmic growth period and then counting cell number using hemocytometer. […] Then, using a Biomek FX, test articles were serially diluted (10 mM top, 3× dilution intervals) along with a reference inhibitor (1 mM top, 3× dilution intervals) in acoustic grade Labcyte plate. Then, using an acoustic dispenser (Labcyte550), compounds were added as serially diluted to plate with cells: 90 nL of serially diluted compounds per well. 90 nL DMSO is added to control wells. Test plates were incubated for 72 h in the humidified incubator at 37° C. with 5% CO2. 25 μL of reconstituted Cell titer Glo reagent was added to each well. Each test plate was then incubated for 20 min at room temperature. Luminescence was then recorded using Synergy Neo2Multi-mode Reader.
In order to calculate intersect IC50, a dose-response curve was fitted using nonlinear regression model with a sigmoidal dose response.
The formula for calculating surviving rate is shown below, and the intersect IC50 was calculated according to the dose-response curve generated by the software:
The compounds of interest were assessed cell viability in the HL-60 acute promyelocytic leukemia cell line (ATCC® CCL-240). […] Culture medium were purchased from ATCC, USA.
A general note: ATP-based viability assays read luminescence as a measure of living cells.

The test system of data set [4] is SK-MEL-28 melanoma cell line. Briefly: SK-MEL-28 cell line toxicity (Cell titer Glo viability). The format is cell-based. Particulars: SK-MEL-28, 72 h. The procedure:
(§3) Culture medium were purchased from ATCC, USA.
• General cell culture reagents and plastic. • 384-Well Flat white Poly-styrene TC-Treated Microplates (Corning). • 384 well poly-propylene plates (acoustic grade, Labcyte) for compound dilution. • Cell titer Glo luminescent Cell Viability reagent (Cat #G7571, Promega).
(§4) 90 nL DMSO is added to control wells. […] Luminescence was then recorded using Synergy Neo2Multi-mode Reader.

For data set [5], the system named is PC3 prostate adenocarcenoma cell line. In words: PC3 cell line toxicity (Cell titer Glo viability). The format is cell-based. Particulars: PC3, 72 h. The procedure: as §4, §3

T1 sequence (P34972 whole entry): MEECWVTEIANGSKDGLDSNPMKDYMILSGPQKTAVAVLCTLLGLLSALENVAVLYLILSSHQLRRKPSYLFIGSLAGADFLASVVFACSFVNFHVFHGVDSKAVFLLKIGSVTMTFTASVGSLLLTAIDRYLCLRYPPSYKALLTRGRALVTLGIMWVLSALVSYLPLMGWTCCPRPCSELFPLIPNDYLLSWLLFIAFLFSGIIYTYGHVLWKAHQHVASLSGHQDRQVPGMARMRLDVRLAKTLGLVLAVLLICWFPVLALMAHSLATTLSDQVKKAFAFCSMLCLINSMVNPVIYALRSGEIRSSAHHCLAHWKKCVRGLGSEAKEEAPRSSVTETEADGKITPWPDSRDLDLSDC
T2 sequence (P21554 whole entry): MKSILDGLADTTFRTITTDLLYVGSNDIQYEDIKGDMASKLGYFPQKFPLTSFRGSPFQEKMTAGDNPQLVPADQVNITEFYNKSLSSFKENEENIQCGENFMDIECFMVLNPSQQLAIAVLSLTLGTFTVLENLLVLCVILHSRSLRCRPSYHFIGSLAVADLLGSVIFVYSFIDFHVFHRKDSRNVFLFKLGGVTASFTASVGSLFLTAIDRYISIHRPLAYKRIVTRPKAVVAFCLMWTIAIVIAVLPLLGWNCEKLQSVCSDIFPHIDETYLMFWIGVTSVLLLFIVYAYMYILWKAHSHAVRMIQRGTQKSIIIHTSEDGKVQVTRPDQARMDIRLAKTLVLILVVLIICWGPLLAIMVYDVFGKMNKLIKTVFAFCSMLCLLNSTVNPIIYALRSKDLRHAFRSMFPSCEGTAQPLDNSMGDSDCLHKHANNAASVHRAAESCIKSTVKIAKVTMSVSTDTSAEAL

The term IC50 denotes the midpoint of a concentration-inhibition curve. With `CCCCCc1cc(O)c2c(c1)OC(C)(C)C1CCC(CO)=CC21` (stereo not drawn) [11-hydroxy-THC], the IC50 in data set [1] (agonist mode, Forskolin-stimulated cAMP, CNR2 CHO-K1 cells) came out at 51 nM; in data set [2], 1 nM. For the same compound, the “Selectivity for CB2 over CB1 (fold)” value in data set [1] (ratio of agonist IC50 values) was found to be 0.02 fold.

As to `CN[C@@H]1C[C@H]2O[C@@](C)([C@@H]1OC)n1c3ccccc3c3c4c(c5c6ccccc6n2c5c31)C(=O)NC4` [Staurosporine, staurosporine, reference compound], the “Cell Viability (%)” value in data set [3] (0.014 uM) was 66.6%; in data set [3] (0.041 uM), 36.3%; in data set [3] (0.12 uM) it was 27.7%; in data set [3] (0.37 uM) it was 18.7%; in data set [3] (1.1 uM) it was 13.9%; in data set [3] (3.3 uM), 11.7%. The “Cell Viability (%)” value in data set [3] (10 uM) worked out at 10.4%; in data set [3] (30 uM), 9.6%; in data set [4] (0.041 uM), 70.0%; in data set [4] (0.12 uM) it was 53.9%; in data set [4] (0.37 uM), 41.1%; in data set [4] (1.1 uM), 33.0%. In addition, the “Cell Viability (%)” value in data set [4] (3.3 uM) is reported as 17.3%; in data set [4] (10 uM) it was 8.55%; in data set [4] (30 uM), 8.85%; in data set [5] (0.0015 uM) it was 67.1%; in data set [5] (0.0046 uM), 43.2%; in data set [5] (0.014 uM), 34.5%. Besides, the “Cell Viability (%)” value in data set [5] (0.041 uM) is recorded as 12.7%; in data set [5] (0.12 uM) it was 10.3%; in data set [5] (0.37 uM) it was 9.5%; in data set [5] (1.1 uM), 8.4%; in data set [5] (3.3 uM) it was 8.1%; in data set [5] (10 uM) it was 6.8%. In addition, in data set [5] (30 uM), the “Cell Viability (%)” value is recorded as 7.1%. Also, the IC50 is about 210 nM in data set [4] (Homo sapiens) and about 4 nM in data set [5] (Homo sapiens, PC-3).
